Measurements taken from patent publication US12138320B2, “Composition and methods for tumor imaging and treatment” (The University of Chicago, priority 2020, dated 2024).

Columns and labels:
[1] = biological target: T1, NCEH1 (Mus musculus, UniProt Q8BLF1); assay: In vivo competition: oral JW480 pre-treatment, then i.v. [18F]JW199 and PET-CT
T1 construct: For murine proteomes, mouse tissues were Dounce-homogenized on ice in cold PBS; from tissue; host or cells: athymic nude mice: heart, kidney, lung, liver, brain, spleen and other organs
T1 sequence (Q8BLF1 1-408): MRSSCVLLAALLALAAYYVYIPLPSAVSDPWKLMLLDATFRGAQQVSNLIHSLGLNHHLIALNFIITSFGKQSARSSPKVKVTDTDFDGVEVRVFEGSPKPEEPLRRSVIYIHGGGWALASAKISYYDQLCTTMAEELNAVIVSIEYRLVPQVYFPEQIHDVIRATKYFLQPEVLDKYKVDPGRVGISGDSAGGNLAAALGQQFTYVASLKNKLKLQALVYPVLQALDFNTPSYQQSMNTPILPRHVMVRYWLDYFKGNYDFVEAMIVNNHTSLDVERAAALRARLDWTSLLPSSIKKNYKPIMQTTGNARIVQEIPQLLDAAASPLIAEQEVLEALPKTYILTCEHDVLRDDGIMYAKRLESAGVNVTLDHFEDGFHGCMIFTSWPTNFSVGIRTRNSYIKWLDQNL
Method: In vivo microPET/CT imaging: All imaging was performed by the Integrated Small Animal Imaging Research Resource (iSAIRR) at the University of Chicago (Chicago, Illinois, United States of America) on a β-Cube and X-Cube (Molecubes NV, Ghent, Belgium). Athymic nude mice (males and females, aged 6 to 8 weeks; HSD strain, Harlan-Envigo, Indianapolis, Indiana, United States of America) were anesthetized via inhalation with 1.5-2% isoflurane and injected with approximately 150 μCi (5.55 Megabecquerel (MBq)) of [^18F]JW199 in 150 μL of physiologic saline through the lateral tail vein, followed by awake incubation for 1 hour and 45 minutes. MicroCT images were acquired using the general purpose protocol, with energy of 50 KeV and a tube current of 100 μA. Respiration rate and body temperature of the animal were constantly monitored during the entire scanning period with the p-Cube and X-Cube onboard monitoring system. A 1 hr dynamic PET acquisition was started 2 hours after [^18F]JW199 injection. Dynamic reconstruction was performed for 6 frames of 10 minutes each using a three-dimensional (3D) OSEM algorithm with 400 μm isometric voxel size. For competition studies, mice were pretreated with either 80 mg/kg JW480 or vehicle (polyethylene glycol 300 (PEG300)) via oral gavage, followed 4 hours later by dosing with [^18F]JW199 and imaging as described. For the MDA-MB231 study, [^18F]JW199 injection was followed immediately by dynamic PET acquisition (90 min) and microCT scanning as detailed above. Dynamic PET image reconstruction included 9 frames of 10 minutes each.
Dynamic reconstruction was performed using a three-dimensional OSEM algorithm with 400 μm isometric voxel size. […] 3D regions of interest (ROIs) were drawn and standardized uptake values (SUVs) and percent injected dose per cubic centimeter of tissue (% ID/cc) were calculated for each ROI and time point. % ID/cc was calculated as a ratio of tissue radioactivity concentration (mCi/g) at time of scan to total injected activity (millicurie (mCi)) at time of scan.

[2] = biological target: T1, NCEH1; assay: Gel-based competitive ABPP of murine tissue membrane proteomes after JW480 pre-treatment; type: in vivo; details: JW480 80 mg/kg; brain, heart, kidney, lung, liver, spleen membrane proteomes
From the text: FIGS. 9A and 9B: Gel-based competitive activity-based protein profiling (ABPP) profiles of several murine membrane proteomes following treatment with fluorine-18-labeled 2-isopropylphenyl-(4-(2-fluoroethoxy)phenethyl)carbamate ([^18F]JW199) with and without 2-isopropylphenyl)-(2-(naphthalen-2-yl)ethyl)carbamate (JW480; 80 milligrams per kilogram (mg/kg)). FIG. 9A is a schematic drawing showing the chemical structure of JW480. FIG. 9B is a composite gel image of the ABPP profiles of the murine membrane proteomes from brain, heart, kidney, lung, liver and spleen following treatment with [^18F]JW199 with or without JW480.
Proteome Preparation: Human PC3 and MDA-MB231 cells were grown in Roswell Park Memorial Institute (RPMI) medium and Dulbecco's Modified Eagle Medium (DMEM), respectively, supplemented with 10% fetal bovine serum (FBS) and 2 mM L-glutamine, and cultured in a humidified 5% CO2 incubator at 37° C. […] Protein concentrations were determined using a Bradford protein assay kit (Bio-Rad, Hercules, California, United States of America)). […]
Gel-based Activity Profiling: Cell lysates were treated with 1 μM fluorophosphonate-rhodamine (FP-rho) for 30 min at room temperature (50 μL total reaction volume). […] Densitometric quantification of band intensities were used to calculate the percent inhibition via JW199. […]

[3] = biological target: T2, NCEH1 (Homo sapiens, UniProt Q6PIU2); assay: Gel-based competitive ABPP (FP-Rho) of cancer cells treated in situ (live cells); type: cell-based; details: for potency against NCEH1 compared to JW199: MDA-MB231 cells treated in situ, 0-25 μM (FIG. 5B)
T2 construct: serine hydrolase activity in membrane proteome fractions of MDA-MB231 breast cancer cells treated with the indicated concentrations; endogenous in cells; host or cells: PC3 prostate cancer cells; MDA-MB231 breast cancer cells
T2 sequence (Q6PIU2 1-408): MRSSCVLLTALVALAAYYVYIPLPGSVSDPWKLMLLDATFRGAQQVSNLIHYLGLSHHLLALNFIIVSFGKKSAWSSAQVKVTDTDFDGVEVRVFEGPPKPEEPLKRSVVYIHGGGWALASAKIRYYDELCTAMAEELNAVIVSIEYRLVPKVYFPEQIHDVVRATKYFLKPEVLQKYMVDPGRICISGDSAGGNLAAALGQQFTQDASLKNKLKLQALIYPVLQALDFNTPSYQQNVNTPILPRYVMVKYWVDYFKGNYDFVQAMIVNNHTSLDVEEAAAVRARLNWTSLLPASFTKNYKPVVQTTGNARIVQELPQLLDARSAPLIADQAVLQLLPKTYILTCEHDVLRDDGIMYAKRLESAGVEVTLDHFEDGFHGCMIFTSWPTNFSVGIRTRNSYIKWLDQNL
Method: (§1) Proteome Preparation: Human PC3 and MDA-MB231 cells were grown in Roswell Park Memorial Institute (RPMI) medium and Dulbecco's Modified Eagle Medium (DMEM), respectively, supplemented with 10% fetal bovine serum (FBS) and 2 mM L-glutamine, and cultured in a humidified 5% CO2 incubator at 37° C. Cells were washed twice with phosphate buffered saline (PBS, pH 7.5), collected by scraping, resuspended in 0.2 ml PBS, sonicated, and fractionated via centrifugation (100,000×g, 45 min) into a pellet (containing membrane proteins) and supernatant (containing soluble proteins). For murine proteomes, mouse tissues were Dounce-homogenized on ice in cold PBS, followed by a low-speed spin (1,400×g, 5 min) to remove debris. After sonication, the membrane and soluble proteomes were fractionated as described above. All sample pellets were washed and resuspended in PBS via sonication. Protein concentrations were determined using a Bradford protein assay kit (Bio-Rad, Hercules, California, United States of America)). Samples were stored at −80° C. until use.
Cellular JW199 Treatments: JW199 was dissolved in dimethyl sulfoxide (DMSO) vehicle, which was diluted into media or buffer before addition to cells or proteomes, respectively. For in vitro proteome experiments, the final DMSO concentration was 4%. For live cell (in situ) treatments, 2×10^6 cells were seeded in 6 cm dishes (100% confluency) 24 hours prior to JW199 treatment in serum-free media. At the end of the experiment, cells were washed and collected, as described above, for gel-based activity profiling.
Gel-based Activity Profiling: Cell lysates were treated with 1 μM fluorophosphonate-rhodamine (FP-rho) for 30 min at room temperature (50 μL total reaction volume). Reactions were quenched with one volume of standard 4× sodium dodecyl sulfate/polyacrylamide gel electrophoresis (SDS/PAGE) reducing sample buffer, resolved on 10% acrylamide SDS/PAGE gels, and visualized in-gel with a fluorescence scanner sold under the tradename CHEMIDOC™ MP (Bio-Rad, Hercules, California, United States of America). Densitometric quantification of band intensities were used to calculate the percent inhibition via JW199. 50% inhibitory concentration (IC50) values were determined from dose-response curves constructed in GraphPad Prism software from three independent replicates for each inhibitor concentration. For competitive ABPP with JW576, tumor lysates were treated with 1 μM JW576 for 30 min at 37° C. (50 μL total reaction volume). Competitive ABPP was then conducted as described above. NCEH1 activity was calculated by densitometric quantification (ImageJ software; National Institutes of Health (NIH), Bethesda, Maryland, United States of America) of JW576-labeled band intensity (BODIPY fluorescence) from three independent replicates.

[4] = test system: other detected serine hydrolase targets; assay: Family-wide gel-based profiling of serine hydrolases in MDA-MB231 and PC3 cells (selectivity); type: cell-based, human; details: live cells
Method: as §1, with “For murine proteomes, mouse tissues were Dounce-homogenized on ice in cold PBS, followed by a low-speed spin (1,400×g, 5 min) to remove debris. After sonication, the membrane and soluble proteomes were fractionated as described above. All sample pellets were washed and resuspended in PBS via sonication.” left out, “Samples were stored at −80° C. until use.” left out
Gel-based Activity Profiling: Cell lysates were treated with 1 μM fluorophosphonate-rhodamine (FP-rho) for 30 min at room temperature (50 μL total reaction volume). Reactions were quenched with one volume of standard 4× sodium dodecyl sulfate/polyacrylamide gel electrophoresis (SDS/PAGE) reducing sample buffer, resolved on 10% acrylamide SDS/PAGE gels, and visualized in-gel with a fluorescence scanner sold under the tradename CHEMIDOC™ MP (Bio-Rad, Hercules, California, United States of America). Densitometric quantification of band intensities were used to calculate the percent inhibition via JW199. […]

CC(C)c1ccccc1OC(=O)NCCc1ccc2ccccc2c1 [JW480, 2-isopropylphenyl-(2-(naphthalen-2-yl)ethyl)carbamate] was tested, and the “effect of pre-treatment on radioactivity in urine and brain” value ([1]; JW480 80 mg/kg oral, 4 hours before tracer) was “slightly elevated radioactivity”, the “effect of pre-treatment on [18F]JW199 radiotracer signal in heart, lung and kidney” value ([1]; JW480 80 mg/kg oral, 4 hours before tracer, 3 hours post injection) was “significantly diminished radiotracer signal” and the “[18F]JW199 accumulation in kidneys and heart of competitor-treated mouse (PET-CT images)” value ([1]; JW480 oral, then i.v. tracer) was “visibly decreased”. The “inhibition of NCEH1 in tissues of pre-treated mice” value [2] was “specific and significant inhibition”.

With CC(C)c1ccccc1OC(=O)NCCc1ccc(OCCF)cc1 [JW199, 2-isopropylphenyl-(4-(2-fluoroethoxy)phenethyl)carbamate] the “IC50 values, inhibition of NCEH1 in live cells” value ([3]; in situ, MDA-MB231 and PC3 cells) was “low nM range” and the “selectivity over other detected serine hydrolase targets” value [4] was > 1,000 fold.

CC(C)c1ccccc1OC(=O)NCCNC(=O)c1ccc2cc(OCCF)ccc2c1 [JW291, 2-isopropylphenyl (2-(6-(2-fluoroethoxy)-2-naphthamido)ethyl)carbamate] was tested, and the “potency against NCEH1 compared to JW199” value [3] was “less potent”.

In the case of CC(C)c1ccccc1OC(=O)NCCc1ccc(OCCCF)cc1 [JW245, 2-isopropylphenyl-(4-(3-fluoropropoxy)phenethyl)carbamate], the “potency against NCEH1 compared to JW199” value [3] is reported as “less potent”.
